Non-standard residues stand in square brackets, D forms with d. Residues, ends and D or L forms follow the SMILES beside them. *: point of attachment. Hexanoyl = CCCCCC(=O)*; Ahx = NCCCCCC(=O)O
Legend:
AKT (Ser473) = test: Phospho-AKT HTRF assay in HEK293 cells; assay type: cell-based, human; conditions: HEK293, subthreshold HGF 10 ng/mL + fosgo-AM 0.1 µM, vs HGF alone
Text: To determine phosphoactivation status of the intracellular signaling molecules ERK (Thr202/Tyr204) or AKT (Ser473), we used homogenous time-resolved fluorescence (HTRF) kits to assess phosphorylation status based on the energy transfer between donor and acceptor phospho-ERK (pERK) or phospho-AKT (pAKT) antibodies. HTRF kit processing for pERK (Phospho-ERK [Thr202/Tyr204] cellular Advanced kit, #64AERPEG, Cisbio, Codolet, France) and pAKT (Phospho-AKT [Ser473] cellular kit, #64AKSPEG, Cisbio, Codolet, France) were carried out per manufacturer instructions. In brief, HEK293 cells were grown at 37 °C, 5% CO2 in DMEM + 10% FBS until approximately 80% confluent. Cells were seeded in polystyrene-treated 96-well cell culture plates at approximately 50,000 cells/well and cultured overnight in 50 µL serum-free growth media. […] Fluorescence emission at 2 different wavelengths (665 nm and 620 nm) were measured on an Envision plate reader (PerkinElmer, Waltham, Massachusetts), and the HTRF ratio of the acceptor and donor emission signals for each well was calculated as follows: HTRF ratio = (665 nm/620 nm) × 10,000. […] Data were assessed for normality (Shapiro–Wilk) and homoscedasticity (Brown-Forsythe). Statistical significance was determined by one-way analysis of variance (ANOVA) with Tukey’s multiple comparison post-test. […]

[1] = Fosgo-AM solubility (turbidity in PBS); assay type: physicochemical; conditions: 1% DMSO, 37 °C, 2 h
Procedure: A fosgo-AM dilution series was produced in DMSO. Compound stocks were added in triplicate to a 96-well plate containing PBS, resulting in 1% DMSO concentration, and were incubated at 37 °C for 2 h. Turbidity in the sample wells was determined by absorbance at 620 nm.

IL-1β = IL-1β release in LPS-challenged THP-1 macrophages (HTRF); assay type: cell-based, human; conditions: 1 µM, 20 min pretreatment, LPS 50 ng/mL 24 h, vs LPS + vehicle
Procedure: To determine the effect of fosgo-AM on LPS-induced cytokine release, we sought to determine the levels of interleukin-1β (IL-1β), interleukin-6 (IL-6), and tumor necrosis factor-α (TNF-α) in LPS-challenged THP-1–differentiated macrophages in the presence and absence of fosgo-AM. THP-1 monocytes were grown at 37 °C, 5% CO2 in Roswell Park Memorial Institute (RPMI) medium + 10% FBS until approximately 80% confluent. Cells were seeded in polystyrene-treated 96-well cell culture plates at approximately 50,000 cells/well in 100-µL complete media. 100 µL Phorbol myristate acetate was then added to each well for a final concentration of 100 ng/mL. The plate was then incubated for 3 days at 37 °C, 5% CO2 to prime the monocytes into macrophages. […] For cytokine quantification, cell culture supernatant was assayed by HTRF kits to assess levels of IL-1β (Human IL-1β kit, #62HIL1BPEG, Cisbio, Codolet, France) and IL-6 (Human IL-6 kit, 62HIL06PET, Cisbio, Codolet, France), and by ELISA (Human TNF-α ELISA kit, KHC3011, ThermoFisher, Waltham, Massachusetts) to determine the levels of TNF-α. […] Fluorescence emission at 2 different wavelengths (665 nm and 620 nm) were measured on an Envision plate reader (PerkinElmer, Waltham, Massachusetts), and HTRF ratio of the acceptor and donor emission signals for each well was calculated as follows: HTRF ratio = (665 nm/620 nm) × 10,000. […]

- maximum aqueous solubility [1]: less than 50 μg/mL
Compound: CCCCCC(=O)N[C@@H](Cc1ccc(O)cc1)C(=O)N[C@H](C(=O)NCCCCCC(N)=O)[C@@H](C)CC [fosgo-AM] (Hexanoyl-Tyr-Ile-[Ahx]-NH2)
- pAKT levels (AKT (Ser473)): significant increase
- IL-1β release (IL-1β): significant decrease
